Drawing on the AptaBench aptamer set (doi:10.1093/nar/gkaf219), this text covers binding call and Kd for 16 compounds.

Holding throughout (conditions): 10 mM Tris-HCl, pH 7.4
In test [1] the test system is DNA aptamer or structured DNA GGGACGACGGGGATTCGCGGATTCATAGAAAAGGGCTCGTCCGTCGTCCC
In test [2] the test system is DNA aptamer or structured DNA GGGACGACGAGTGCGGGGAGTGTGTTTCTGTGGGGGTCGTCGTCCC
The test system of test [3] is DNA aptamer or structured DNA GGGACGACGGCACGTGGTTATTCGTTGGTTGCACTGCGCTGGGAGGCAGTCGTCCC
For test [4], the system named is DNA aptamer or structured DNA GGGACGACGCGTAGGTTTCCTAGCTGTGCGTCGTTCAAGTCGTCCC
For test [5], the system named is DNA aptamer or structured DNA GGGACGACATGGGATACCAGAGTCCTGGGATGTGGTGTGTCGTCCC
In test [6] the test system is DNA aptamer or structured DNA GGGACGACGGGATGTGGTGTCAGTCATGATGGGATCAAGTCGTCCC
Throughout, for binding call: call rule not given here.

`CCN(CC)CCOC(=O)c1ccc(N)cc1`: in test [1], the binding call is given as “no binding”. For `CCN(CC)CC(=O)Nc1c(C)cccc1C`, the binding call in test [2] is given as “no binding”.

As a reminder, the Kd is the concentration at which binding is half-saturated. In test [1], `CN1CC[C@]23c4c5ccc(O)c4O[C@H]2[C@@H](O)C=C[C@H]3[C@H]1C5` returned a Kd of 2.5 µM. Take `CNC(C)Cc1ccc2c(c1)OCO2` (stereo not given): in test [3], the binding call was “binds”. As for `c1ccc([C@H]2CN3CCSC3=N2)cc1`, the binding call in test [2] is “no binding”. For the compound `CC(=O)Oc1ccc2c3c1O[C@H]1[C@@H](OC(C)=O)C=C[C@H]4[C@@H](C2)N(C)CC[C@@]341`, the Kd in test [4] is 4.57 µM.

Turning to `CC(N)Cc1ccccc1` (stereo not given), the binding call in test [3] is “binds”.

Take `CN(C)CCOC(c1ccccc1)c1ccccc1`: the binding call in test [4] is listed as “no binding”. Take `NCCc1c[nH]c2ccc(O)cc12`: the binding call in test [1] is given as “no binding”. For the compound `COc1ccc2c3c1O[C@H]1C(=O)CC[C@@]4(O)[C@@H](C2)N(C)CC[C@]314`, the Kd in test [5] amounted to 2.77 µM; in test [2] it was 0.99 µM; in test [6], 3.65 µM. Turning to `CN[C@@H](C)Cc1ccccc1`, the Kd in test [3] came out at 6.1 µM. Regarding `CN1C(=O)CN=C(c2ccccc2)c2cc(Cl)ccc21`, the binding call in test [5] and in test [2] was “no binding” throughout. Take `NCC(O)c1ccc(O)c(O)c1` (stereo not given): the binding call in test [3] is “binds”. With `CC(=O)Nc1ccc(O)cc1`, the binding call in test [6] is on record as “no binding”. For `C=CCN1CC[C@]23c4c5ccc(O)c4O[C@H]2C(=O)CC[C@@]3(O)[C@H]1C5`, the binding call in test [5] and in test [4] was “no binding” in each case.

For `NCCc1ccc(O)c(O)c1`, the binding call in test [1] was “no binding”.
